From patent publication US20190145978A1, “APPLICATION OF PDE3A IN JUDGMENT OF TUMOR TREATMENT EFFECT OF ANAGRELID” (Shanghai Institute of Materia Medica, Chinese Academy of …, priority 2016, published 2019)
Like-named read-outs stand apart in the source and are kept apart here.

Columns and labels:
[1] = test system: A498; assay: MTT assay, IC50 of anagrelide on tumor cell line; format: cell-based; settings: Homo sapiens, 72 h
Procedure: (§1) 3. Determination of Half Poisoning Dose of Drugs to Cells (MTT Method)
(§2) The liquid containing drugs was continuously geometrically diluted to 1:10, 1:100, 1:1,000, 1:10,000 with a cell maintenance solution, and a normal cell control group was set up. Different concentrations of each drug were added into a 96-well plate that has been grown into a single layer, respectively, and inoculated per dilution in triplicate, and 100 μl was added per well, and the plate was incubated in a carbon dioxide incubator at 37° C. for 72 h, followed by 5 μg/ml 25 μL of MTT was added.
(§3) The culture was continued for 3.5 h, and the supernatant was removed and discarded. 150 μl of the dissolving solution DMSO was added to each well, and the plate was shaked for 5 to 10 min, until the crystals were completely dissolved. Then the OD value at 570 nm was measured by a microplate reader. The cell viability of each drug dilution was calculated: cell viability %=(mean value of experimental well OD measured value/mean value of control well OD measured value)×100%. The drug concentration at 50% cell poisoning (IC50) was calculated using probability unit regression.
(§4) The cell lines in Example 1 were subjected to an activity assay using Anagrelide at a concentration of 1 μM, and the cell lines were classified into three categories according to cell viability: sensitive (S), moderately sensitive (M), and insensitive (R), and the IC50 value of anagrelide in inhibiting each cell line was further determined.

[2] = test system: Bel7404; assay: MTT assay, IC50 of anagrelide on tumor cell line; format: cell-based; settings: Homo sapiens, BEL-7404, 72 h
Procedure: as §1, §2, §3, §4

[3] = test system: FHCC98; assay: MTT assay, IC50 of anagrelide on tumor cell line; format: cell-based; settings: Homo sapiens, FHCC-98, 72 h
Procedure: as §1, §2, §3, §4

[4] = test system: H4; assay: MTT assay, IC50 of anagrelide on tumor cell line; format: cell-based; settings: Homo sapiens, 72 h
Procedure: as §1, §2, §3, §4

[5] = test system: Hela; assay: MTT assay, IC50 of anagrelide on tumor cell line; format: cell-based; settings: Homo sapiens, 72 h
Procedure: as §1, §2, §3, §4

[6] = test system: SMMC7721; assay: MTT assay, IC50 of anagrelide on tumor cell line; format: cell-based; settings: Homo sapiens, SMMC-7721, 72 h
Procedure: as §1, §2, §3, §4

[7] = test system: SW1116; assay: MTT assay, IC50 of anagrelide on tumor cell line; format: cell-based; settings: Homo sapiens, SW 1116, 72 h
Procedure: as §1, §2, §3, §4

[8] = test system: SMMC7721, FHCC98, H4, and HeLa; assay: Antitumor activity assay (MTT), anagrelide-sensitive PDE3A-positive cell lines; format: cell-based, human; settings: for IC50: Homo sapiens
Procedure: (§5) Wherein anagrelide (1 μM) is used for treatment for 72 hours, and MTT assay is used to detect the cell survival rate. The cells are classified by the test results: sensitive (survival rate <40%), moderately sensitive (40-75% of survival rate), resistance (survival rate >75. The cell names in the figure are marked with a circle and a triangle respectively to identify the sensitive group and the moderately sensitive group. 3. Determination of Half Poisoning Dose of Drugs to Cells (MTT Method) The liquid containing drugs was continuously geometrically diluted to 1:10, 1:100, 1:1,000, 1:10,000 with a cell maintenance solution, and a normal cell control group was set up. Different concentrations of each drug were added into a 96-well plate that has been grown into a single layer, respectively, and inoculated per dilution in triplicate, and 100 μl was added per well, and the plate was incubated in a carbon dioxide incubator at 37° C. for 72 h, followed by 5 μg/ml 25 μL of MTT was added. The culture was continued for 3.5 h, and the supernatant was removed and discarded. 150 μl of the dissolving solution DMSO was added to each well, and the plate was shaked for 5 to 10 min, until the crystals were completely dissolved. Then the OD value at 570 nm was measured by a microplate reader. The cell viability of each drug dilution was calculated: cell viability %=(mean value of experimental well OD measured value/mean value of control well OD measured value)×100%. The drug concentration at 50% cell poisoning (IC50) was calculated using probability unit regression. The cell lines in Example 1 were subjected to an activity assay using Anagrelide at a concentration of 1 μM, and the cell lines were classified into three categories according to cell viability: sensitive (S), moderately sensitive (M), and insensitive (R), and the IC50 value of anagrelide in inhibiting each cell line was further determined.

[9] = test system: Bel7404, A498 and SW1116; assay: Antitumor activity assay (MTT), moderately sensitive PDE3A-positive cell lines; format: cell-based, human
Procedure: as §5, with “150 μl of the dissolving solution DMSO was added to each well, and the plate was shaked for 5 to 10 min, until the crystals were completely dissolved.” left out, “The drug concentration at 50% cell poisoning (IC50) was calculated using probability unit regression. The cell lines in Example 1 were subjected to an activity assay using Anagrelide at a concentration of 1 μM, and the cell lines were classified into three categories according to cell viability: sensitive (S), moderately sensitive (M), and insensitive (R), and the IC50 value of anagrelide in inhibiting each cell line was further determined.” left out

[10] = test system: Twenty cell lines negatively expressing PDE3A; assay: Antitumor activity assay (MTT), PDE3A-negative cell lines; format: cell-based, human
Procedure: as §5, with “150 μl of the dissolving solution DMSO was added to each well, and the plate was shaked for 5 to 10 min, until the crystals were completely dissolved.” left out, “The drug concentration at 50% cell poisoning (IC50) was calculated using probability unit regression. The cell lines in Example 1 were subjected to an activity assay using Anagrelide at a concentration of 1 μM, and the cell lines were classified into three categories according to cell viability: sensitive (S), moderately sensitive (M), and insensitive (R), and the IC50 value of anagrelide in inhibiting each cell line was further determined.” left out

[11] = test system: platelets; assay: Inhibition of platelets in vitro; format: cell-based; settings: Platelet; read-out: IC50 of anagrelide inhibiting platelets in vitro
[12] = Animal experiment, safety at tumor-inhibiting doses; format: in vivo; settings: 10 mg-200 mg/kg
[13] = test system: HeLa cells transfected with pde3a siRNA; assay: RTCA growth monitoring of HeLa cells after pde3a siRNA knockdown and anagrelide treatment; format: cell-based, human; settings: pde3a siRNA KD1/KD2 vs NC
Procedure: Wherein, NC: control group, KD: PDE3A knockdown group. The HeLa cells in logarithmic growth phase were inoculated into 96-well plates or RTCA plates at about 6000/well and cultivated overnight until the cells were attached about 70-80%, and the cells were in good condition; a certain amount of serum-free and antibiotic-free medium was added into two EP tubes, respectively, and a suitable amount of siRNA was added into one tube and mixed, while a suitable amount of Lipofectamine™2000 was added into the other tube and mixed at room temperature for 5-10 min. The medium supplemented with Lipofectamine™ reagent was added into the siRNA-containing EP tube and mixed at room temperature for 15 min; during the placement, the cells were washed once with serum-free and non-double antibody medium, and 75 μL of the medium was added, ready for use. After 15 minutes, the mixed medium was added into the cell culture dish, 25 μL/well, and gently shaken and mixed; after cultured at 37° C., 5% CO2 for 6 hours, the medium was changed to fresh medium containing 10% FBS; after 24-72 h, the expression of RNAi interference protein was detected by western blot. […] The real-time monitor automatically monitored cell growth for more than 4 days, and the amount of cells was reflected according to the size of the resistance formed by spreading the cells. […]

[14] = test system: HeLa cells transfected with pde3a siRNA; assay: PI detection of apoptotic cells in HeLa after PDE3A knockdown and anagrelide treatment; format: cell-based, human; settings: 48 hours after PDE3A knockout, anagrelide 36 hours, PI staining
Procedure: The HeLa cells in logarithmic growth phase were inoculated into 96-well plates or RTCA plates at about 6000/well and cultivated overnight until the cells were attached about 70-80%, and the cells were in good condition; a certain amount of serum-free and antibiotic-free medium was added into two EP tubes, respectively, and a suitable amount of siRNA was added into one tube and mixed, while a suitable amount of Lipofectamine™2000 was added into the other tube and mixed at room temperature for 5-10 min. The medium supplemented with Lipofectamine™ reagent was added into the siRNA-containing EP tube and mixed at room temperature for 15 min; during the placement, the cells were washed once with serum-free and non-double antibody medium, and 75 μL of the medium was added, ready for use. After 15 minutes, the mixed medium was added into the cell culture dish, 25 μL/well, and gently shaken and mixed; after cultured at 37° C., 5% CO2 for 6 hours, the medium was changed to fresh medium containing 10% FBS; after 24-72 h, the expression of RNAi interference protein was detected by western blot. In 96-well plates, cells were treated with different compounds for 24-36 hours, and 2 μL of PI dye liquor (25 ug/mL) was added into 96-well plates. Cells were incubated for 20 min, and photographed under a fluorescence microscope for observation of the number of red fluorescent cells. […]

Question: With `O=C1CN2Cc3c(ccc(Cl)c3Cl)NC2=N1` [anagrelide, 6,7-dichloro-1,5-dihydroimidazo [2,1-b]quinazolin-2(3H) one] as the molecule, how does the IC50 [1] read?
Answer: 15.9 µM

Question: What about the IC50 [2] of the same molecule?
Answer: 428 nM

Question: And the IC50 [3]?
Answer: 8 nM

Question: And the IC50 [4]?
Answer: 23 nM

Question: And the IC50 [5]?
Answer: 22 nM

Question: And the IC50 [6]?
Answer: 15 nM

Question: What about the IC50 [7] of the same molecule?
Answer: 14.5 µM

Question: And the IC50 ([8]; SMMC7721, FHCC98, H4, HeLa (PDE3A positive), read-out: IC50 values, sensitive cell lines)?
Answer: < 30 nM

Question: What about the IC50 ([8]; sensitive tumor cells, in vitro, read-out: IC50 for sensitive tumor cells in vitro) of the same molecule?
Answer: < 30 nM

Question: And the “sensitivity class by cell survival rate” value ([8]; anagrelide 1 μM, 72 hours, MTT)?
Answer: sensitive (sensitive (survival rate <40%))

Question: What about the IC50 ([9]; Homo sapiens, Bel7404, A498, SW1116 (PDE3A positive)) of the same molecule?
Answer: 0.4 to 16 µM

Question: What about the “sensitivity class by cell survival rate” value ([9]; anagrelide 1 μM, 72 hours, MTT) of the same molecule?
Answer: moderately sensitive (moderately sensitive (40-75% of survival rate))

Question: What about the IC50 ([10]; Homo sapiens, twenty cell lines negatively expressing PDE3A) of the same molecule?
Answer: > 50 µM

Question: What about the “sensitivity class by cell survival rate” value ([10]; anagrelide 1 μM, 72 hours, MTT) of the same molecule?
Answer: not sensitive

Question: What about the IC50 [11] of the same molecule?
Answer: 270 to 1000 nM

Question: And the “safety at doses that inhibit tumor cell growth” value [12]?
Answer: safe

Question: And the “survival rate after anagrelide was added, KD vs NC group” value [13]?
Answer: the survival rate of KD2 with the lower level of PDE3A protein was the highest, while that in the NC group was the lowest

Question: What about the “PI positive cells, KD group vs control group” value [14] of the same molecule?
Answer: fewer PI positive cells than that in the control group
